According to patent publication US4791139A, “Diphenyl ether derivatives and their use as insecticides” (Imperial Chemical Industries PLC, priority 1986, dated 1988):

Assays:
Type in all cases: in vivo
Myzus persicae (aphids) = assay: Contact test, aphids (MP), Chinese Cabbage leaf; details: 72 h, 3 days, read-out: MP grading of mortality
In short: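 Aphids on a host plant and/or the plant itself were treated with 100–500 ppm of product, applied from acetone diluted in water containing 0.1% SYNPERONIC NX wetting agent. Mortality was scored usually one to seven days after treatment.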

[1] = system: Nilaparvata lugens (brown plant hopper - nymphs); assay: Contact test, brown plant hopper - nymphs (NL), Rice plant; details: 72 h, 3 days, read-out: NL grading of mortality
In short: (§1)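 Each pest was kept on its food plant or foodstuff and exposed, directly or via the medium, to 100 to 500 ppm Product in water containing 0.1% by weight wetting agent. Kill was recorded over one to seven days.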

[2] = system: Musca domestica (houseflies - adults); assay: Knockdown test, houseflies - adults (MD/KD), Cotton wool/sugar; details: 4 hours, read-out: MD/KD grading of knockdown
In short: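 Product was dissolved in acetone and diluted with water containing 0.1% wetting agent to 100–500 ppm. The flies and/or their food medium were treated with the preparation. Mortality was scored 1–7 days after treatment, with an additional knockdown assessment for houseflies.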

[3] = system: Musca domestica (houseflies - adults); assay: Contact test, houseflies - adults (MD), Cotton wool/sugar; details: 24 h, 1 day, read-out: MD grading of mortality
In short: as §1

[4] = system: Blattella germanica (cockroach nymphs); assay: Residual test, cockroach nymphs (BG), Plastic pot; details: 72 h, 3 days, read-out: BG grading of mortality
In short: as §1

[5] = system: Heliothis virescens (tobacco budworm - larvae); assay: Residual test, tobacco budworm - larvae (HV), Cotton leaf; details: 72 h, read-out: HV grading of mortality
In short: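 Products applied as acetone solutions diluted in water with 0.1% wetting agent, at 100–500 ppm; pests on host plant or food, with pests and/or medium treated. Mortality or knockdown scored 1–7 days after treatment and graded A (80–100%), B (50–79%) or C (<50%).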

[6] = system: Diabrotica balteata (rootworm larvae); assay: Residual test, rootworm larvae (DB), Filter paper/maize seed; details: 72 h, 3 days, read-out: DB grading of mortality
In short: as §1

[7] = system: Meloidogyne incognita (Tomato root knot eelworm - larvae); assay: Residual test, Tomato root knot eelworm - larvae (MI), Semi in-vitro; details: 168 h, application rate is half that recorded, 7 days, read-out: MI grading of mortality
[8] = system: Chilo partellus (Maize stemborer - larvae); assay: Residual test, Maize stemborer - larvae (CP), Oilseed rape; details: 72 h, 3 days, read-out: CP grading of mortality
Procedure: (§2) The activity of the Product was determined using a variety of insect pests. The Product was used in the form of liquid preparations containing from 100 to 500 parts per million (ppm) by weight of the Product. The preparations were made by dissolving the Product in acetone and diluting the solutions with water containing 0.1% by weight of a wetting agent sold under the trade name "SYNPERONIC" NX until the liquid preparations contained the required concentration of the Product. "SYNPERONIC" is a Registered Trade Mark.
(§3) The test procedure adopted with regard to each pest was basically the same and comprised supporting a number of the pests on a medium which was usually a host plant or a foodstuff on which the pests feed, and treating either or both the pests and the medium with the preparations. The mortality of the pests was then assessed at periods usually varying from one to seven days after the treatment.
(§4) The results of the tests are given in Table III for each of the Products, at the rate in parts per million given in the second column as a grading of mortality designated as A, B or C wherein A indicates 80-100% mortality or knockdown (70-100% for Meloidogyne incognita), B indicates 50-79% mortality knockdown or knockdown (50-69% for Meloidogyne incognita) and C indicates less than 50% mortality or knockdown.
In Table III the pest organism used is designated by a letter code and the pests species, the support medium or food, and the type and duration of test is given in Table II.
(Maize stemborer - larvae)

carp = assay: Mortality to carp; details: after 48 hours at 10 parts per million
Description: The compounds according to formula I and compositions comprising them have shown themselves to be particularly useful in controlling pests of maize and rice such as Chilo (stem borers), Nilaparvata and Nephotettix (plant hoppers) as well as lepidopteran pests of cotton, for example Heliothis spp. This activity is combined with a low level of hazard to aquatic organisms, eg. fish, which renders the compounds particularly suitable for use in aquatic environments, such as for the control of insect pests of paddy rice and for the control of larvae of insect vectors of disease, for example mosquitos. Thus, for example, compound 2 in Table I caused no mortality to carp after 48 hours at a concentration of 10 parts per million. […] (spider mites).

[9] = system: Tetranychus urticae (spider mites - adult); assay: Contact test, spider mites - adult (TUa), French bean leaf; details: 72 h, 3 days, read-out: TUA grading of mortality
In short: as §1

[10] = system: Spodoptera exigua (lesser army worm - larvae); assay: Residual test, lesser army worm - larvae (SP), Cotton leaf; details: 72 h, 3 days, read-out: SP grading of mortality
In short: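 Compound dissolved in acetone and diluted in water with 0.1% Synperonic NX wetting agent to 100–500 ppm. Pests on host plant or food, with pests and/or medium treated. Mortality assessed 1–7 days after treatment and graded A (80–100%), B (50–79%) or C (<50%).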

Nephotettix cincticeps = assay: Contact test, leaf hopper in place of Nilaparvata lugens (NL**), Rice plant; details: 72 h, 3 days, read-out: NL** grading of mortality (Nephotettix cincticeps)
Procedure: as §2, §3
as §4, with “knockdown. […]” for “knockdown.”

[11] = system: Tetranychus urticae (spider mites - ova); assay: Contact test, spider mites - ova (TUe), French bean leaf; details: 144 h, 6 days, read-out: TUE grading of mortality
In short: as §1

CCOc1ccc(C(CCCc2cccc(Oc3ccccc3)c2)C(F)(F)F)cc1 (racemic) [Compound 2, 2-(4-ethoxyphenyl)-5-(3-phenoxyphenyl)-1,1,1-trifluoropentane]
mortality at 500 ppm (Myzus persicae (aphids)): 80 to 100% | mortality at 500 ppm ([1]; 500 ppm): 80 to 100% | pest or weed control at 500 ppm [2]: 80 to 100% | mortality at 500 ppm [3]: 80 to 100% | mortality at 500 ppm [4]: 80 to 100% | mortality at 500 ppm [5]: 80 to 100% | mortality at 500 ppm [6]: 80 to 100% | mortality at 250 µg/mL ([7]; rate column 500 ppm): < 50% | mortality at 500 ppm ([8]; 500 ppm): 80 to 100% | mortality to carp (carp): no mortality

Fc1ccc(CCC=C(c2ccc(OC(F)(F)F)cc2)C(F)F)cc1Oc1ccccc1 [Compound 26, 1,1-Difluoro-2-(4-trifluoromethoxyphenyl)-5-(4-fluoro-3-phenoxyphenyl)pent-2-ene]
mortality at 500 ppm ([9]; 500 ppm): 80 to 100% | mortality at 500 ppm (Myzus persicae (aphids)): 80 to 100% | pest or weed control at 500 ppm [2]: 80 to 100% | mortality at 500 ppm [3]: 80 to 100% | mortality at 500 ppm [4]: 80 to 100% | mortality at 500 ppm [5]: 80 to 100% | mortality at 500 ppm ([10]; 500 ppm): 80 to 100% | mortality at 500 ppm [6]: 50 to 79% | mortality at 500 ppm (Nephotettix cincticeps; 500 ppm): 80 to 100%

Fc1ccc(CCCC(c2ccc(OC(F)(F)F)cc2)C(F)(F)F)cc1Oc1ccccc1 (racemic) [Compound 20, 1,1,1-Trifluoro-2-(4-trifluoromethoxyphenyl)-5-(4-fluoro-3-phenoxyphenyl)pentane]
mortality at 100 ppm ([9]; 100 ppm): 50 to 79% | mortality at 100 ppm ([11]; 100 ppm): 80 to 100% | mortality at 100 ppm (Myzus persicae (aphids); 100 ppm): 80 to 100% | mortality at 100 ppm ([1]; 100 ppm): 80 to 100% | pest or weed control at 100 ppm ([2]; 100 ppm): 80 to 100% | mortality at 100 ppm ([3]; 100 ppm): 80 to 100% | mortality at 100 ppm ([4]; 100 ppm): 80 to 100% | mortality at 100 ppm [5]: 80 to 100% | mortality at 100 ppm ([6]; 100 ppm): 80 to 100% | mortality at 50 µg/mL ([7]; rate column 100 ppm): < 50% | mortality at 100 ppm ([8]; 100 ppm): 80 to 100%

FC(F)(F)COc1ccc(C(CCCc2cccc(Oc3ccccc3)c2)C(F)(F)F)cc1 (racemic) [Compound 73, 1,1,1-trifluoro-2-[4-(2,2,2-trifluoroethoxy)phenyl]-5-(3-phenoxyphenyl)pentane]
mortality at 250 ppm [9]: 80 to 100% | mortality at 250 ppm (Myzus persicae (aphids)): 80 to 100% | pest or weed control at 250 ppm [2]: 80 to 100% | mortality at 250 ppm [3]: 80 to 100% | mortality at 250 ppm [4]: 80 to 100% | mortality at 250 ppm [5]: 80 to 100% | mortality at 250 ppm ([10]; 250 ppm): 80 to 100% | mortality at 250 ppm [6]: 80 to 100% | mortality at 250 ppm (Nephotettix cincticeps; 250 ppm): 80 to 100%

CCOc1ccc(C(CCCc2ccc(F)c(Oc3ccccc3)c2)C(F)(F)F)cc1 (racemic) [Compound 5, 1,1,1-Trifluoro-2-(4-ethoxyphenyl)-5-(4-fluoro-3-phenoxyphenyl)pentane]
mortality at 250 ppm [9]: 80 to 100% | mortality at 250 ppm ([11]; 250 ppm): 50 to 79% | mortality at 250 ppm (Myzus persicae (aphids)): 80 to 100% | mortality at 250 ppm ([1]; 250 ppm): 80 to 100% | pest or weed control at 250 ppm [2]: 80 to 100% | mortality at 250 ppm [3]: 80 to 100% | mortality at 250 ppm [4]: 80 to 100% | mortality at 250 ppm [5]: 80 to 100% | mortality at 250 ppm [6]: 80 to 100% | mortality at 125 µg/mL ([7]; rate 250 ppm): < 50% | mortality at 250 ppm ([8]; 250 ppm): 80 to 100%
